# In PubChem BioAssay AID1963420 (Molecular Pharmacology Branch, DTP, NCI, 2024):
# Test system: 494315-158-R-J1-PDC complex spheroid growth, percent test/control
# Assay: Anticancer human tumor 494315-158-R-J1-PDC patient-derived soft tissue sarcoma cell line growth inhibition [Asc]
# Details: for IC50: curve of first compound; for viability, T/C: stronger effect = lower value
# Procedure: Multicellular complex tumor spheroid response to apoptosis pathway targeting inhibitors Alrizomadlin, Pelcitoclax, and Dasminapant in combination with a variety of drugs and investigational agents in selected tumor cell lines
# The MDM2 inhibitor alrizomadlin, the Bcl-2/Bcl-xL inhibitor pelcitoclax, and the IAPs inhibitor dasminapant were evaluated both individually and in combination with standard of care and investigational anticancer small molecules within a complex spheroid model of solid tumors. . Complex spheroids include a stromal component modeled by human endothelial cells (HUVEC) and fibroblasts modeled by human mesenchymal stem cells (MSCs). The concentration ranges selected for each drug and investigational agent were based upon clinically achievable concentrations if the clinical Cmax of the agent was known.
# Compounds. The drugs and investigational agents: alrizomadlin (APG-115; NSC831270), pelcitoclax (APG-1252; NSC835773), dasminapant (APG-1387;NSC834197), TAK-243 (NSC785004), copanlisib (NSC809693), olaparib (NSC753686), talazoparib (NSC767125), cobimetinib (NSC 768068), eltanexor (KPT-8602, NSC 794443), abemaciclib (NSC 768073), sotorasib (NSC818433), adagrasib (NSC 831453), MRTX-1133 (NSC 836407), Iadademestat (ORY1001, NSC 806812), and RMC-4630 (NSC839698), were obtained from the NCI Developmental Therapeutics Program Chemical Repository. The FDA-approved anticancer drug set is available from the Developmental Therapeutics Program at https://dtp.cancer.gov/organization/dscb/obtaining/available plates.htm. […] The stock solutions were prepared in dimethyl sulfoxide (DMSO, Sigma-Aldrich, St. Louis, MO, cat. D2650) at 800-fold the tested concentration and stored at -70 degrees C prior to their use. All drugs and investigational agents were tested over a range starting from a high concentration at or near the clinical Cmax and decreasing in half-log increments. If the clinical Cmax for an agent had not been determined, the highest concentration tested was 10 microM.
# The patient-derived cancer (PDC) cell lines include five colon adenocarcinomas: 186277-243-T-J2-PDC, 616215-338-R-J1-PDC, 439559-082-T-J2-PDC, 463943-066-T-J2-PDC, and 519858-162-T-J1-PDC; three pancreatic carcinomas: 323965-272-R-J2-PDC, 521955-158-R6-J3-PDC, and 521955-158-R2-J5-PDC; two uterine sarcomas: 327498-152-R-J2-PDC and 993429-296-R-J1-PDC; two rhabdomyosarcomas: 755483-174-R-J1-PDC and 772245-204-R-J1-PDC; two soft tissue sarcomas: 126254-015-R-J1-PDC and 494315-158-R-J1-PDC; two malignant fibrous histiocytomas: 317291-083-R-J1-PDC and 596521-263-R-J1-PDC; two breast carcinomas: 171881-019-R-J1-PDC and 885512-296-R-J2-PDC; and one ovarian carcinoma: 6556581-035-R-J-PDC were obtained from the NCI PDMR, (https://pdmr.cancer.gov). The established cell lines HSSY-2 synovial sarcoma (RRID:CVCL 8719), SYO-1 synovial sarcoma (RRID:CVCL_7146), MPNST malignant peripheral neural sheath tumor were obtained from the Sloan Kettering Institute. The following established cell lines were purchased from the American Type Culture Collection (ATCC, Manassas, VA), Sor the received from the NCI repository:, PANC-1 pancreatic carcinoma (CRL-1469, RRID:CVCL_0480), OVCAR-5 ovarian carcinoma (RRID:CVCL_1628), OVCAR-8 ovarian carcinoma (RRID:CVCL_1629), , MCF-7 breast carcinoma (CRL-12584, RRID:CVCL_0031), MDA-MB-231 breast carcinoma (CRL-12532, RRID:CVCL_0062), NCI-H1876 small cell lung carcinoma (CRL-5902, RRID:CVCL_1503), NCI-H510A small cell lung carcinoma (HTB-184, RRID:CVCL_1565), NCI-H1417 (CRL-5869, RRID:CVCL_1469), and NCI-H196 small cell lung carcinoma (CRL-5823, RRID:CVCL_1509). Dr. Peter Houghton (Greehey Children's Cancer Research Institute, University of Texas Health Science Center, San Antonio, TX) provided Rh-18 rhabdomyosarcoma (RRID:CVCL_1659). Pooled donor human umbilical vein endothelial cells (HUVEC, Lonza, cat. CC-2519) and human mesenchymal stem cells (hMSC, Lonza, cat. PT-2501) were purchased from Lonza (Walkersville, MD).
# Cell Culture. […]
# [1] = second compound 0.03 µM, first compound 0.00316 µM
# [2] = second compound 0.03 µM, first compound 0.01 µM
# [3] = second compound 0.03 µM, first compound 0.0316 µM
# [4] = second compound 0.03 µM, first compound 0.1 µM
# [5] = second compound 0.0949 µM, first compound 0.00316 µM
# [6] = second compound 0.0949 µM, first compound 0.01 µM
# [7] = second compound 0.0949 µM, first compound 0.0316 µM
# [8] = second compound 0.0949 µM, first compound 0.1 µM
# [9] = second compound 0.3 µM, first compound 0.00316 µM
# [10] = second compound 0.3 µM, first compound 0.01 µM
# [11] = second compound 0.3 µM, first compound 0.0316 µM
# [12] = second compound 0.3 µM, first compound 0.1 µM
# [13] = second compound 0.949 µM, first compound 0.00316 µM
# [14] = second compound 0.949 µM, first compound 0.01 µM
# [15] = second compound 0.949 µM, first compound 0.0316 µM
# [16] = second compound 0.949 µM, first compound 0.1 µM
# [17] = second compound 3 µM, first compound 0.00316 µM
# [18] = second compound 3 µM, first compound 0.01 µM
# [19] = second compound 3 µM, first compound 0.0316 µM
# [20] = second compound 3 µM, first compound 0.1 µM
# 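Further: compound exposure lasted seven days after spheroids formed for three days.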
compound,measurement,setting,value
CCN1CCN(Cc2ccc(Nc3ncc(F)c(-c4cc(F)c5nc(C)n(C(C)C)c5c4)n3)nc2)CC1 + CCN1C(C(=O)NC23CCC(C(=O)O)(CC2)CC3)C(c2cccc(Cl)c2F)C2(C(=O)Nc3cc(Cl)ccc32)C12CCCCC2,IC50,second compound 0.03 µM,> 1000 nM
same,IC50,second compound 0.0949 µM,> 1000 nM
same,IC50,second compound 0.3 µM,> 1000 nM
same,IC50,second compound 0.949 µM,> 1000 nM
same,IC50,second compound 3 µM,> 1000 nM
same,"viability, T/C",[1],109%
same,"viability, T/C",[2],108%
same,"viability, T/C",[3],94.2%
same,"viability, T/C",[4],112%
same,"viability, T/C","second compound 0.03 µM, first compound 0.316 µM",105%
same,"viability, T/C","second compound 0.03 µM, first compound 1 µM",97.2%
same,"viability, T/C",[5],105%
same,"viability, T/C",[6],112%
same,"viability, T/C",[7],121%
same,"viability, T/C",[8],121%
same,"viability, T/C","second compound 0.0949 µM, first compound 0.316 µM",106%
same,"viability, T/C","second compound 0.0949 µM, first compound 1 µM",103%
same,"viability, T/C",[9],107%
same,"viability, T/C",[10],104%
same,"viability, T/C",[11],114%
same,"viability, T/C",[12],106%
same,"viability, T/C","second compound 0.3 µM, first compound 0.316 µM",112%
same,"viability, T/C","second compound 0.3 µM, first compound 1 µM",97.2%
same,"viability, T/C",[13],111%
same,"viability, T/C",[14],117%
same,"viability, T/C",[15],100%
same,"viability, T/C",[16],99.2%
same,"viability, T/C","second compound 0.949 µM, first compound 0.316 µM",97.1%
same,"viability, T/C","second compound 0.949 µM, first compound 1 µM",88.3%
same,"viability, T/C",[17],110%
same,"viability, T/C",[18],112%
same,"viability, T/C",[19],89.1%
same,"viability, T/C",[20],114%
same,"viability, T/C","second compound 3 µM, first compound 0.316 µM",100%
same,"viability, T/C","second compound 3 µM, first compound 1 µM",85%
NC(=O)C(=Cn1cnc(-c2cc(C(F)(F)F)cc(C(F)(F)F)c2)n1)c1cncnc1 + CCN1C(C(=O)NC23CCC(C(=O)O)(CC2)CC3)C(c2cccc(Cl)c2F)C2(C(=O)Nc3cc(Cl)ccc32)C12CCCCC2,IC50,second compound 0.03 µM,72.6 nM
same,IC50,second compound 0.0949 µM,52.4 nM
same,IC50,second compound 0.3 µM,68.7 nM
same,IC50,second compound 0.949 µM,74.9 nM
same,IC50,second compound 3 µM,79.1 nM
same,"viability, T/C","second compound 0.03 µM, first compound 0.000949 µM",97%
same,"viability, T/C","second compound 0.03 µM, first compound 0.003 µM",107%
same,"viability, T/C","second compound 0.03 µM, first compound 0.00949 µM",84.9%
same,"viability, T/C","second compound 0.03 µM, first compound 0.03 µM",78.3%
same,"viability, T/C","second compound 0.03 µM, first compound 0.0949 µM",41%
same,"viability, T/C","second compound 0.03 µM, first compound 0.3 µM",17.4%
same,"viability, T/C","second compound 0.0949 µM, first compound 0.000949 µM",96.6%
same,"viability, T/C","second compound 0.0949 µM, first compound 0.003 µM",96.4%
same,"viability, T/C","second compound 0.0949 µM, first compound 0.00949 µM",81.6%
same,"viability, T/C","second compound 0.0949 µM, first compound 0.03 µM",64.4%
same,"viability, T/C","second compound 0.0949 µM, first compound 0.0949 µM",35.5%
same,"viability, T/C","second compound 0.0949 µM, first compound 0.3 µM",16.8%
same,"viability, T/C","second compound 0.3 µM, first compound 0.000949 µM",96.6%
same,"viability, T/C","second compound 0.3 µM, first compound 0.003 µM",88%
same,"viability, T/C","second compound 0.3 µM, first compound 0.00949 µM",97.6%
same,"viability, T/C","second compound 0.3 µM, first compound 0.03 µM",74.8%
same,"viability, T/C","second compound 0.3 µM, first compound 0.0949 µM",40.4%
same,"viability, T/C","second compound 0.3 µM, first compound 0.3 µM",17.5%
same,"viability, T/C","second compound 0.949 µM, first compound 0.000949 µM",98.2%
same,"viability, T/C","second compound 0.949 µM, first compound 0.003 µM",89.3%
same,"viability, T/C","second compound 0.949 µM, first compound 0.00949 µM",80.6%
same,"viability, T/C","second compound 0.949 µM, first compound 0.03 µM",70.8%
same,"viability, T/C","second compound 0.949 µM, first compound 0.0949 µM",43.4%
same,"viability, T/C","second compound 0.949 µM, first compound 0.3 µM",19.1%
same,"viability, T/C","second compound 3 µM, first compound 0.000949 µM",102%
same,"viability, T/C","second compound 3 µM, first compound 0.003 µM",103%
same,"viability, T/C","second compound 3 µM, first compound 0.00949 µM",95.6%
same,"viability, T/C","second compound 3 µM, first compound 0.03 µM",81%
same,"viability, T/C","second compound 3 µM, first compound 0.0949 µM",44%
same,"viability, T/C","second compound 3 µM, first compound 0.3 µM",13.6%
NC1CCC(NC2CC2c2ccccc2)CC1 (stereo not given) + CCN1C(C(=O)NC23CCC(C(=O)O)(CC2)CC3)C(c2cccc(Cl)c2F)C2(C(=O)Nc3cc(Cl)ccc32)C12CCCCC2,IC50,second compound 0.03 µM,> 100 nM
same,IC50,second compound 0.0949 µM,> 100 nM
same,IC50,second compound 0.3 µM,> 100 nM
same,IC50,second compound 0.949 µM,> 100 nM
same,IC50,second compound 3 µM,> 100 nM
same,"viability, T/C","second compound 0.03 µM, first compound 0.000316 µM",95.8%
same,"viability, T/C","second compound 0.03 µM, first compound 0.001 µM",95.3%
same,"viability, T/C",[1],89.8%
same,"viability, T/C",[2],85.2%
same,"viability, T/C",[3],112%
same,"viability, T/C",[4],97.9%
same,"viability, T/C","second compound 0.0949 µM, first compound 0.000316 µM",99.7%
same,"viability, T/C","second compound 0.0949 µM, first compound 0.001 µM",93.4%
same,"viability, T/C",[5],99%
same,"viability, T/C",[6],104%
same,"viability, T/C",[7],92.5%
same,"viability, T/C",[8],95%
same,"viability, T/C","second compound 0.3 µM, first compound 0.000316 µM",96.6%
same,"viability, T/C","second compound 0.3 µM, first compound 0.001 µM",91.3%
same,"viability, T/C",[9],94.7%
same,"viability, T/C",[10],88.7%
same,"viability, T/C",[11],96.5%
same,"viability, T/C",[12],82.2%
same,"viability, T/C","second compound 0.949 µM, first compound 0.000316 µM",91%
same,"viability, T/C","second compound 0.949 µM, first compound 0.001 µM",91.5%
same,"viability, T/C",[13],85.7%
same,"viability, T/C",[14],87.5%
same,"viability, T/C",[15],90.9%
same,"viability, T/C",[16],92.1%
same,"viability, T/C","second compound 3 µM, first compound 0.000316 µM",98.3%
same,"viability, T/C","second compound 3 µM, first compound 0.001 µM",98%
same,"viability, T/C",[17],93.7%
same,"viability, T/C",[18],91%
same,"viability, T/C",[19],83.6%
same,"viability, T/C",[20],96.6%
